Results as given in PubChem BioAssay (NCI).
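At the GI50, growth is halved. TGI: concentration producing complete growth inhibition.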

Tests used:
Assay in all cases: DTP human tumour cell line panel, 384-well format
786-0 renal = system: 786-0 renal
CAKI-1 renal = system: CAKI-1 renal
HT29 colon = system: HT29 colon
M14 melanoma = system: M14 melanoma
MDA-MB-468 breast = system: MDA-MB-468 breast
NCI-H226 lung = system: NCI-H226 lung
NCI-H23 lung = system: NCI-H23 lung
OVCAR-4 ovarian = system: OVCAR-4 ovarian
SF-295 CNS = system: SF-295 CNS
SF-539 CNS = system: SF-539 CNS
SK-MEL-5 melanoma = system: SK-MEL-5 melanoma
TK-10 renal = system: TK-10 renal
U251 glioblastoma = system: U251 glioblastoma

Structure (SMILES)	GI50 (786-0 renal)	TGI (786-0 renal)	GI50 (CAKI-1 renal)	TGI (CAKI-1 renal)	GI50 (HT29 colon)	TGI (HT29 colon)	GI50 (M14 melanoma)	TGI (M14 melanoma)	GI50 (MDA-MB-468 breast)	TGI (MDA-MB-468 breast)	GI50 (NCI-H226 lung)	TGI (NCI-H226 lung)	GI50 (NCI-H23 lung)	TGI (NCI-H23 lung)	GI50 (OVCAR-4 ovarian)	TGI (OVCAR-4 ovarian)	GI50 (SF-295 CNS)	TGI (SF-295 CNS)	GI50 (SF-539 CNS)	TGI (SF-539 CNS)	also measured
Cn1cc(-c2cc3c(N4CCN(c5ncc([C@@](C)(N)c6ccc(F)cc6)cn5)CC4)ncnn3c2)cn1	1.76 µM	3.37 µM	3.71 µM	17.6 µM	2.65 µM	> 26.2 µM	4.42 µM	19.2 µM	1.12 µM	3.03 µM	3.51 µM	28.2 µM	2.23 µM	14.2 µM	2.96 µM	12.2 µM	3.72 µM	19.9 µM	2.17 µM	12.2 µM	GI50 (SK-MEL-5 melanoma): 1.85 µM; TGI (SK-MEL-5 melanoma): 3.98 µM; GI50 (TK-10 renal): 7.29 µM; TGI (TK-10 renal): 48.2 µM; GI50 (U251 glioblastoma): 3.54 µM; TGI (U251 glioblastoma): 25.1 µM
C=CC(=O)Nc1cc(Nc2nccc(-c3cn(C)c4ccccc34)n2)c(OC)cc1N(C)CCN(C)C	1.31 µM	2.6 µM	0.703 µM	2.08 µM	1.61 µM	2.99 µM	1.96 µM	3.39 µM	0.0378 µM	0.189 µM	0.863 µM	2.2 µM	1.87 µM	3.67 µM	2.02 µM	3.54 µM	2.62 µM	6.33 µM	1.44 µM	2.76 µM	GI50 (SK-MEL-5 melanoma): 1.22 µM; TGI (SK-MEL-5 melanoma): 2.23 µM; GI50 (TK-10 renal): 0.317 µM; TGI (TK-10 renal): 1.77 µM; GI50 (U251 glioblastoma): 1.8 µM; TGI (U251 glioblastoma): 3.25 µM
